molecular target: human capsaicin receptor (VR1) (Homo sapiens, UniProt Q8NER1); assay: Capsaicin receptor binding assay ([3H]RTX competition, VR1-transfected HEK293 membranes)
Sequence (Q8NER1 whole entry): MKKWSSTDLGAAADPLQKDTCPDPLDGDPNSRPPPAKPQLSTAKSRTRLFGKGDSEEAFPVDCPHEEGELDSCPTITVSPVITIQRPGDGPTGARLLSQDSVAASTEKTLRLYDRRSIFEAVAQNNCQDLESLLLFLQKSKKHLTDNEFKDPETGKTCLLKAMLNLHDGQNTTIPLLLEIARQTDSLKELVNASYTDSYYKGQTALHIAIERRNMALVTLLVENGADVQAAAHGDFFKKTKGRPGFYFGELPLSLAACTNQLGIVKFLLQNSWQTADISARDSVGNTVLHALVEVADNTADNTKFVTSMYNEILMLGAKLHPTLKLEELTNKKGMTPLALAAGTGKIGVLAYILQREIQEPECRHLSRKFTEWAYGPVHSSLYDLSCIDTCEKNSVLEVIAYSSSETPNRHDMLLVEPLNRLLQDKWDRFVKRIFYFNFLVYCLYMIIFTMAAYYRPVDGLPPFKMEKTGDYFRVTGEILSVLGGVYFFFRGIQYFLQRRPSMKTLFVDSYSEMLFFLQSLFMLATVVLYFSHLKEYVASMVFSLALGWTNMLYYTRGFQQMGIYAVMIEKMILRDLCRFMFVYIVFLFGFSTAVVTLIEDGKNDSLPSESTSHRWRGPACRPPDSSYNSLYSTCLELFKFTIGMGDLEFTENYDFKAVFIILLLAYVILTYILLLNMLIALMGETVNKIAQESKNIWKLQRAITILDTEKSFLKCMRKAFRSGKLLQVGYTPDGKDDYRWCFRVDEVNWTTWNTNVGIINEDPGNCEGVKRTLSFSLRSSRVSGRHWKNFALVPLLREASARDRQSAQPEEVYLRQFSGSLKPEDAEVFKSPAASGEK

Ki, < 1000 nM:
C=CCN(CC=C)CCc1nc(Nc2ccc(C(F)(F)F)cc2)c2ccc(-c3ncccc3C(F)(F)F)cc2n1 [Compound 415, [2-Diallylaminoethyl-7-(3-trifluoromethyl-pyridin-2-yl)-quinazolin-4-yl]-(4-trifluoromethyl-phenyl)-amine]
CCCN(CCC)CCc1nc(Nc2ccc(C(F)(F)F)cc2)c2ccc(-c3ncccc3C(F)(F)F)cc2n1 [Compound 416, [2-Dipropylaminoethyl-7-(3-trifluoromethyl-pyridin-2-yl)-quinazolin-4-yl]-(4-trifluoromethyl-phenyl)-amine]
CCCCN(CC)CCc1nc(Nc2ccc(C(F)(F)F)cc2)c2ccc(-c3ncccc3C(F)(F)F)cc2n1 [Compound 417, [2-[(Butyl-ethyl-amino)-ethyl]-7-(3-trifluoromethyl-pyridin-2-yl)-quinazolin-4-yl]-(4-trifluoromethyl-phenyl)-amine]
CCCN(CCc1nc(Nc2ccc(C(F)(F)F)cc2)c2ccc(-c3ncccc3C(F)(F)F)cc2n1)CC1CC1 [Compound 418, [2-[(Cyclopropylmethyl-propyl-amino)-ethyl]-7-(3-trifluoromethyl-pyridin-2-yl)-quinazolin-4-yl]-(4-trifluoromethyl-phenyl)-amine]
CCCCCCN(C)CCc1nc(Nc2ccc(C(F)(F)F)cc2)c2ccc(-c3ncccc3C(F)(F)F)cc2n1 [Compound 419, [2-[(Hexyl-methyl-amino)-ethyl]-7-(3-trifluoromethyl-pyridin-2-yl)-quinazolin-4-yl]-(4-trifluoromethyl-phenyl)-amine]
CCCCN(CCCC)CCc1nc(Nc2ccc(C(F)(F)F)cc2)c2ccc(-c3ncccc3C(F)(F)F)cc2n1 [Compound 420, [2-Dibutylaminoethyl-7-(3-trifluoromethyl-pyridin-2-yl)-quinazolin-4-yl]-(4-trifluoromethyl-phenyl)-amine]
CC(C)N(C)CCc1nc(Nc2ccc(C(F)(F)F)cc2)c2ccc(-c3ncccc3C(F)(F)F)cc2n1 [Compound 421, [2-[(Isopropyl-methyl-amino)-ethyl]-7-(3-trifluoromethyl-pyridin-2-yl)-quinazolin-4-yl]-(4-trifluoromethyl-phenyl)-amine]
CC1CCCCN1CCc1nc(Nc2ccc(C(F)(F)F)cc2)c2ccc(-c3ncccc3C(F)(F)F)cc2n1 (stereo not shown) [Compound 422, [2-(2-Methyl-piperidin-1-ylethyl)-7-(3-trifluoromethyl-pyridin-2-yl)-quinazolin-4-yl]-(4-trifluoromethyl-phenyl)-amine]
C=C(C)CN(CC)CCc1nc(Nc2ccc(C(F)(F)F)cc2)c2ccc(-c3ncccc3C(F)(F)F)cc2n1 [Compound 423, [2-{2-[Ethyl-(2-methyl-allyl)-amino]-ethyl}-7-(3-trifluoromethyl-pyridin-2-yl)-quinazolin-4-yl]-(4-trifluoromethyl-phenyl)-amine]
CN(CCc1nc(Nc2ccc(C(F)(F)F)cc2)c2ccc(-c3ncccc3C(F)(F)F)cc2n1)C1CCCCC1 [Compound 424, [2-[(Cyclohexyl-methyl-amino)-ethyl]-7-(3-trifluoromethyl-pyridin-2-yl)-quinazolin-4-yl]-(4-trifluoromethyl-phenyl)-amine]
CCC1CCCCN1CCc1nc(Nc2ccc(C(F)(F)F)cc2)c2ccc(-c3ncccc3C(F)(F)F)cc2n1 (stereo not shown) [Compound 425, [2-(2-Ethyl-piperidin-1-ylethyl)-7-(3-trifluoromethyl-pyridin-2-yl)-quinazolin-4-yl]-(4-trifluoromethyl-phenyl)-amine]
CCN(CCc1nc(Nc2ccc(C(F)(F)F)cc2)c2ccc(-c3ncccc3C(F)(F)F)cc2n1)C1CCCCC1 [Compound 426, [2-[(Cyclohexyl-ethyl-amino)-ethyl]-7-(3-trifluoromethyl-pyridin-2-yl)-quinazolin-4-yl]-(4-trifluoromethyl-phenyl)-amine]
COCCN(CCOC)CCc1nc(Nc2ccc(C(F)(F)F)cc2)c2ccc(-c3ncccc3C(F)(F)F)cc2n1 [Compound 427, [2-{2-[Bis-(2-methoxy-ethyl)-amino]-ethyl}-7-(3-trifluoromethyl-pyridin-2-yl)-quinazolin-4-yl]-(4-trifluoromethyl-phenyl)-amine]
CCCCCN(CCCCC)CCc1nc(Nc2ccc(C(F)(F)F)cc2)c2ccc(-c3ncccc3C(F)(F)F)cc2n1 [Compound 428, [2-Dipentylaminoethyl-7-(3-trifluoromethyl-pyridin-2-yl)-quinazolin-4-yl]-(4-trifluoromethyl-phenyl)-amine]
CCCCCCN(CCCCCC)CCc1nc(Nc2ccc(C(F)(F)F)cc2)c2ccc(-c3ncccc3C(F)(F)F)cc2n1 [Compound 429, [2-Dihexylaminoethyl-7-(3-trifluoromethyl-pyridin-2-yl)-quinazolin-4-yl]-(4-trifluoromethyl-phenyl)-amine]
CC1CC(C)CN(CCc2nc(Nc3ccc(C(F)(F)F)cc3)c3ccc(-c4ncccc4C(F)(F)F)cc3n2)C1 (stereo not shown) [Compound 430, [2-(3,5-Dimethyl-piperidin-1-ylethyl)-7-(3-trifluoromethyl-pyridin-2-yl)-quinazolin-4-yl]-(4-trifluoromethyl-phenyl)-amine]
CCN1CCCC1CNC(=O)c1nc(Nc2ccc(C(F)(F)F)cc2)c2ccc(-c3ncccc3C(F)(F)F)nc2n1 (stereo not shown) [Compound 431, 4-(4-Trifluoromethyl-phenylamino)-7-(3-trifluoromethyl-pyridin-2-yl)-pyrido[2,3-d]pyrimidine-2-carboxylic acid (1-ethyl-pyrrolidin-2-ylmethyl)-amide]
O=C(NCCCN1CCCC1)c1nc(Nc2ccc(C(F)(F)F)cc2)c2ccc(-c3ncccc3C(F)(F)F)nc2n1 [Compound 432, 4-(4-Trifluoromethyl-phenylamino)-7-(3-trifluoromethyl-pyridin-2-yl)-pyrido[2,3-d]pyrimidine-2-carboxylic acid (3-pyrrolidin-1-yl-propyl)-amide]
CN1CCN(CCCNC(=O)c2nc(Nc3ccc(C(F)(F)F)cc3)c3ccc(-c4ncccc4C(F)(F)F)nc3n2)CC1 [Compound 433, 4-(4-Trifluoromethyl-phenylamino)-7-(3-trifluoromethyl-pyridin-2-yl)-pyrido[2,3-d]pyrimidine-2-carboxylic acid [3-(4-methyl-piperazin-1-yl)-propyl]-amide]
CN(C)CC(C)(C)CNC(=O)c1nc(Nc2ccc(C(F)(F)F)cc2)c2ccc(-c3ncccc3C(F)(F)F)nc2n1 [Compound 434, 4-(4-Trifluoromethyl-phenylamino)-7-(3-trifluoromethyl-pyridin-2-yl)-pyrido[2,3-d]pyrimidine-2-carboxylic acid (3-dimethylamino-2,2-dimethyl-propyl)-amide]
CN(C)CCNC(=O)c1nc(Nc2ccc(C(F)(F)F)cc2)c2ccc(-c3ncccc3C(F)(F)F)nc2n1 [Compound 435, 4-(4-Trifluoromethyl-phenylamino)-7-(3-trifluoromethyl-pyridin-2-yl)-pyrido[2,3-d]pyrimidine-2-carboxylic acid (2-dimethylamino-ethyl)-amide]
CN(C)CCCNC(=O)c1nc(Nc2ccc(C(F)(F)F)cc2)c2ccc(-c3ncccc3C(F)(F)F)nc2n1 [Compound 436, 4-(4-Trifluoromethyl-phenylamino)-7-(3-trifluoromethyl-pyridin-2-yl)-pyrido[2,3-d]pyrimidine-2-carboxylic acid (3-dimethylamino-propyl)-amide]
O=C(NCCN1CCCC1)c1nc(Nc2ccc(C(F)(F)F)cc2)c2ccc(-c3ncccc3C(F)(F)F)nc2n1 [Compound 437, 4-(4-Trifluoromethyl-phenylamino)-7-(3-trifluoromethyl-pyridin-2-yl)-pyrido[2,3-d]pyrimidine-2-carboxylic acid (2-pyrrolidin-1-yl-ethyl)-amide]
CCN(CC)CCNC(=O)c1nc(Nc2ccc(C(F)(F)F)cc2)c2ccc(-c3ncccc3C(F)(F)F)nc2n1 [Compound 438, 4-(4-Trifluoromethyl-phenylamino)-7-(3-trifluoromethyl-pyridin-2-yl)-pyrido[2,3-d]pyrimidine-2-carboxylic acid (2-diethylamino-ethyl)-amide]
O=C(NCCN1CCCCC1)c1nc(Nc2ccc(C(F)(F)F)cc2)c2ccc(-c3ncccc3C(F)(F)F)nc2n1 [Compound 439, 4-(4-Trifluoromethyl-phenylamino)-7-(3-trifluoromethyl-pyridin-2-yl)-pyrido[2,3-d]pyrimidine-2-carboxylic acid (2-piperidin-1-yl-ethyl)-amide]
CN1CCCC1CCNC(=O)c1nc(Nc2ccc(C(F)(F)F)cc2)c2ccc(-c3ncccc3C(F)(F)F)nc2n1 (stereo not shown) [Compound 440, 4-(4-Trifluoromethyl-phenylamino)-7-(3-trifluoromethyl-pyridin-2-yl)-pyrido[2,3-d]pyrimidine-2-carboxylic acid [2-(1-methyl-pyrrolidin-2-yl)-ethyl]-amide]
CCN(CC)CCCNC(=O)c1nc(Nc2ccc(C(F)(F)F)cc2)c2ccc(-c3ncccc3C(F)(F)F)nc2n1 [Compound 441, 4-(4-Trifluoromethyl-phenylamino)-7-(3-trifluoromethyl-pyridin-2-yl)-pyrido[2,3-d]pyrimidine-2-carboxylic acid (3-diethylamino-propyl)-amide]
O=C(NCCN1CCOCC1)c1nc(Nc2ccc(C(F)(F)F)cc2)c2ccc(-c3ncccc3C(F)(F)F)nc2n1 [Compound 442, 4-(4-Trifluoromethyl-phenylamino)-7-(3-trifluoromethyl-pyridin-2-yl)-pyrido[2,3-d]pyrimidine-2-carboxylic acid (2-morpholin-4-yl-ethyl)-amide]

— US20040156869A1, “2-substituted quinazolin-4-ylamine analogues” (Neurogen Corporation, priority 2002, published 2004)
